From the kinase profiling compilation of Christmann-Franck et al. (2016)

Legend:
Assay in all cases: radiometric filter-binding kinase assay, Kinase HotSpot
Conditions in all cases: compound 0.5 µM; ATP 10 µM
[1] = biological target: EPHA4 (human) (UniProt P54764)
[2] = biological target: AKT2 (human) (UniProt P31751)
[3] = biological target: CSF1R (human) (UniProt P07333)
[4] = biological target: PRKCD (human) (UniProt Q05655)
[5] = biological target: CLK1 (human) (UniProt P49759)
[6] = biological target: ZAP70 (human) (UniProt P43403)
[7] = biological target: MAP3K8 (human) (UniProt P41279)
[8] = biological target: DAPK3 (human) (UniProt O43293)
[9] = biological target: PHKG2 (human) (UniProt P15735)
[10] = biological target: CDK5 CDK5R1 p35 (human) (UniProt Q00535+Q15078)
[11] = biological target: TYRO3 (human) (UniProt Q06418)
[12] = biological target: FER (human) (UniProt P16591)
[13] = biological target: CDK7 CCNH MNAT1 (human) (UniProt P50613+P51948+P51946)
[14] = biological target: TEC (human) (UniProt P42680)
[15] = biological target: TNK2 (human) (UniProt Q07912)
[16] = biological target: MAP3K3 (human) (UniProt Q99759)
[17] = biological target: CDK6 CCND1 (human) (UniProt Q00534+P24385)
[18] = biological target: FLT1 (human) (UniProt P17948)
[19] = biological target: AURKC (human) (UniProt Q9UQB9)
[20] = biological target: TYK2 JH1 catalytic (human) (UniProt P29597)
[21] = biological target: FGFR1 (human) (UniProt P11362)
[22] = biological target: STK25 (human) (UniProt O00506)
[23] = biological target: MAPK3 (human) (UniProt P27361)
[24] = biological target: CSNK1G1 (human) (UniProt Q9HCP0)
[25] = biological target: ROCK2 (human) (UniProt O75116)
[26] = biological target: ROS1 (human) (UniProt P08922)
[27] = biological target: PIM2 (human) (UniProt Q9P1W9)
[28] = biological target: PLK2 (human) (UniProt Q9NYY3)
[29] = biological target: ACVR1B (human) (UniProt P36896)
[30] = biological target: TEK (human) (UniProt Q02763)
[31] = biological target: MUSK (human) (UniProt O15146)
[32] = biological target: LCK (human) (UniProt P06239)
[33] = biological target: PDGFRB (human) (UniProt P09619)
[34] = biological target: MAPK13 (human) (UniProt O15264)
[35] = biological target: KIT (human) (UniProt P10721)
[36] = biological target: CDK2 CCNA2 (human) (UniProt P24941+P20248)
[37] = biological target: NEK3 (human) (UniProt P51956)
[38] = biological target: MINK1 (human) (UniProt Q8N4C8)
[39] = biological target: PAK6 (human) (UniProt Q9NQU5)
[40] = biological target: DMPK (human) (UniProt Q09013)
[41] = biological target: GRK5 (human) (UniProt P34947)
[42] = biological target: ERBB4 (human) (UniProt Q15303)

PRKCD (human), sequence (Q05655 whole entry, looked up): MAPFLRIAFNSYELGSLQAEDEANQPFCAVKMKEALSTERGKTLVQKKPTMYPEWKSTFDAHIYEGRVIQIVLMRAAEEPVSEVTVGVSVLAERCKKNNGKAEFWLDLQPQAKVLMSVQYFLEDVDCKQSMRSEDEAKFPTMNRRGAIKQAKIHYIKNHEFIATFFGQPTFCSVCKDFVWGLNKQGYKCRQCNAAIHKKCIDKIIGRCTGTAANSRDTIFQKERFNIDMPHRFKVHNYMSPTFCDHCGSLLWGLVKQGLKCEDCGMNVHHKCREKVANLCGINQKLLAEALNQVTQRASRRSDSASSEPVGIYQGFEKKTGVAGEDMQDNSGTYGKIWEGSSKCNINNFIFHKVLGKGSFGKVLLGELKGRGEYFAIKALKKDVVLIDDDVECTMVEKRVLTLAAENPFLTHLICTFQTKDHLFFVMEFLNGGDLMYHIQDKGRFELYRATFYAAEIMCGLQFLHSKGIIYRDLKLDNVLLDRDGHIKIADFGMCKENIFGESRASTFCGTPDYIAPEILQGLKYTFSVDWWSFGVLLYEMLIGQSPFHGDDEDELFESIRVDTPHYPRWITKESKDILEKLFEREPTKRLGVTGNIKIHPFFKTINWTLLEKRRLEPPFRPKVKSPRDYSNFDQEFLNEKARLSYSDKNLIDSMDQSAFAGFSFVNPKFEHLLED
CDK6 CCND1 (human), sequence (P24385 whole entry, looked up): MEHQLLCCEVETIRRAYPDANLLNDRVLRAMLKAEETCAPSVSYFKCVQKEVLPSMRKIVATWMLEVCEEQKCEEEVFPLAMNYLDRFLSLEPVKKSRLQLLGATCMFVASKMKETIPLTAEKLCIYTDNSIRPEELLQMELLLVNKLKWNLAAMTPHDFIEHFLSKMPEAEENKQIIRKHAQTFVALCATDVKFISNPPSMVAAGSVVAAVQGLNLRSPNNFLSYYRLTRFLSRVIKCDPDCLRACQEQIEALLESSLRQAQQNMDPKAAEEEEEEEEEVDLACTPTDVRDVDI
CDK6 CCND1 (human), sequence (Q00534 whole entry, looked up): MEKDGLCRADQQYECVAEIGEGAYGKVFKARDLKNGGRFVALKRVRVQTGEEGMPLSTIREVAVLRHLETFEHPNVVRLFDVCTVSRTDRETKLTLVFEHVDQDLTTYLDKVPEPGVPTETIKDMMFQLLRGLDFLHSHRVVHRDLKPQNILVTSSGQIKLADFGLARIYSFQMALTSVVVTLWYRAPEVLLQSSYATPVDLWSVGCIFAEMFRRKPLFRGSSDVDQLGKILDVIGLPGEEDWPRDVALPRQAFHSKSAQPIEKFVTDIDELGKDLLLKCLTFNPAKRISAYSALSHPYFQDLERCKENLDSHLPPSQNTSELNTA
PLK2 (human), sequence (Q9NYY3 whole entry, looked up): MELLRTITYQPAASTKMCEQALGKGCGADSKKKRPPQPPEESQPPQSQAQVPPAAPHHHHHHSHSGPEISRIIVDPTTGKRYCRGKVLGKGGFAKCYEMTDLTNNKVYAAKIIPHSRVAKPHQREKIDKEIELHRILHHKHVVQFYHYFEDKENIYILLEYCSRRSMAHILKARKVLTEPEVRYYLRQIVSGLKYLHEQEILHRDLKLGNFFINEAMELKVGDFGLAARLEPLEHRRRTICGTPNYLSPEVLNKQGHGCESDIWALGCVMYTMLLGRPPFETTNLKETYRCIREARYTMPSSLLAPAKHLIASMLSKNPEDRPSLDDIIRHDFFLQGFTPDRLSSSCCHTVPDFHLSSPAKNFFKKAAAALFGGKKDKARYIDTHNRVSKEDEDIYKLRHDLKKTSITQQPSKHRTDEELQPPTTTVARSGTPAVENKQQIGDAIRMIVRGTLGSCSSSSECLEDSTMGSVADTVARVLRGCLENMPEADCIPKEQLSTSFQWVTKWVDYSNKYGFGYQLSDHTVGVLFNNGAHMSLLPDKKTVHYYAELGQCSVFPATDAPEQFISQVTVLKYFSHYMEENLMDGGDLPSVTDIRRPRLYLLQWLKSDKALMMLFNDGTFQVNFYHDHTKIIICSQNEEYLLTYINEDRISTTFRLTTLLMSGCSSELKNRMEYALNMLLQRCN
CDK7 CCNH MNAT1 (human), sequence (P50613 whole entry, looked up): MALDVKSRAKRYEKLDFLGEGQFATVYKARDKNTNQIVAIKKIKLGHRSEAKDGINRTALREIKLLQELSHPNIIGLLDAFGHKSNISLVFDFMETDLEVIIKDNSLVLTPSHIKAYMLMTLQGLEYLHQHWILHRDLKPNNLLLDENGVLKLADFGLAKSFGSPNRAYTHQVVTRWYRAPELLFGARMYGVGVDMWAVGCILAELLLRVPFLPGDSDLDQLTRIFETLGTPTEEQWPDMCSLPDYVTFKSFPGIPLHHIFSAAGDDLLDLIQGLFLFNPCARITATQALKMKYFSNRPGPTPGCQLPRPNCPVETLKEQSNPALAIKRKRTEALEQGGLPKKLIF
CDK7 CCNH MNAT1 (human), sequence (P51946 whole entry, looked up): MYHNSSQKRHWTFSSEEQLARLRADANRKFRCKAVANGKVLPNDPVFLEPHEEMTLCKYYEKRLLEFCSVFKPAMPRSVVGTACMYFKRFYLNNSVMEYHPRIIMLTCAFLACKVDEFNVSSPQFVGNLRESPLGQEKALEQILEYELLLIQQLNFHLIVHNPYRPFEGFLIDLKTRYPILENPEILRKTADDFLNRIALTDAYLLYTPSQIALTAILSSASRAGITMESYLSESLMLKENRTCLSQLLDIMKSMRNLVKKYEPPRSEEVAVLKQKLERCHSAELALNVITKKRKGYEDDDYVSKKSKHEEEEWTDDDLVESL
CDK7 CCNH MNAT1 (human), sequence (P51948 whole entry, looked up): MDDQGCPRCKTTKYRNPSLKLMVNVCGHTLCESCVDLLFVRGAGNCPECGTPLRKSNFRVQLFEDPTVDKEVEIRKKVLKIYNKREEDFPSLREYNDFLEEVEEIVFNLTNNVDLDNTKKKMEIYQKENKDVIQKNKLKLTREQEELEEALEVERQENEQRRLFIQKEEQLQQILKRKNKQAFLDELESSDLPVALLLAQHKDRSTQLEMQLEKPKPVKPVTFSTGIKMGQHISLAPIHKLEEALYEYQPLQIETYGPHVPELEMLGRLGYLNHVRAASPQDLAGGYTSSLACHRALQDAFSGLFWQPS
FLT1 (human), sequence (P17948 whole entry, looked up): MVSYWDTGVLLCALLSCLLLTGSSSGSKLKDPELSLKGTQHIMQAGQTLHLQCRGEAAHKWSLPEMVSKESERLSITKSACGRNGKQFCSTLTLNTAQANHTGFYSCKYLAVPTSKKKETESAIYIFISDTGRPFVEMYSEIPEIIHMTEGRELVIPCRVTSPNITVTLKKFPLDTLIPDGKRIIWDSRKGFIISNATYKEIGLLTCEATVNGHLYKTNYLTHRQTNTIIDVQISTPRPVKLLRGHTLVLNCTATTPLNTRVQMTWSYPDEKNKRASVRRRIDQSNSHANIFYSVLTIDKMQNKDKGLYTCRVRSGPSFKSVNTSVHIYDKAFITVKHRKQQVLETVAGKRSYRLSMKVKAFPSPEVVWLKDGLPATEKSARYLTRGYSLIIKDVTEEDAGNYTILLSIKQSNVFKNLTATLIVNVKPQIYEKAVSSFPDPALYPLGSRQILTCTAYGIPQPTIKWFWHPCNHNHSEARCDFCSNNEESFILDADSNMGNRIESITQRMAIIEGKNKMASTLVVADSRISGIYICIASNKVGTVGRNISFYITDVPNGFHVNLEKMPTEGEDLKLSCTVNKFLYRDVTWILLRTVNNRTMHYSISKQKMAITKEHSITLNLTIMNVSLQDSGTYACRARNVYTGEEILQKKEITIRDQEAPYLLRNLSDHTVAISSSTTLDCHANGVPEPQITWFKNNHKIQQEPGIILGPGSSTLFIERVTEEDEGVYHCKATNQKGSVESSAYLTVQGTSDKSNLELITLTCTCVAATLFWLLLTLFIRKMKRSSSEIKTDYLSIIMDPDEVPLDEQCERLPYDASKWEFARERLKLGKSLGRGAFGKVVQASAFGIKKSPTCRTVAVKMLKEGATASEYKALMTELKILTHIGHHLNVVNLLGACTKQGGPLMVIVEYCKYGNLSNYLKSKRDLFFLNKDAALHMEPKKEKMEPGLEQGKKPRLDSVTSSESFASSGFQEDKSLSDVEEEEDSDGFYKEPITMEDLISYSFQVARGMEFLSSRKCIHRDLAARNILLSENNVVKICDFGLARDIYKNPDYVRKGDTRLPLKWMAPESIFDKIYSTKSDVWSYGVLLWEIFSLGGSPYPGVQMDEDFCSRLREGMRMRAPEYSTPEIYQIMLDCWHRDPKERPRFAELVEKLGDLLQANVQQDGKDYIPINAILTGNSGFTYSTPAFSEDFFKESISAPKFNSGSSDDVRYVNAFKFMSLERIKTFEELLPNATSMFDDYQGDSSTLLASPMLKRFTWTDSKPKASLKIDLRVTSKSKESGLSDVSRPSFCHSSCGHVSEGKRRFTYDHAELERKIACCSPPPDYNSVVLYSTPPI
ZAP70 (human), sequence (P43403 whole entry, looked up): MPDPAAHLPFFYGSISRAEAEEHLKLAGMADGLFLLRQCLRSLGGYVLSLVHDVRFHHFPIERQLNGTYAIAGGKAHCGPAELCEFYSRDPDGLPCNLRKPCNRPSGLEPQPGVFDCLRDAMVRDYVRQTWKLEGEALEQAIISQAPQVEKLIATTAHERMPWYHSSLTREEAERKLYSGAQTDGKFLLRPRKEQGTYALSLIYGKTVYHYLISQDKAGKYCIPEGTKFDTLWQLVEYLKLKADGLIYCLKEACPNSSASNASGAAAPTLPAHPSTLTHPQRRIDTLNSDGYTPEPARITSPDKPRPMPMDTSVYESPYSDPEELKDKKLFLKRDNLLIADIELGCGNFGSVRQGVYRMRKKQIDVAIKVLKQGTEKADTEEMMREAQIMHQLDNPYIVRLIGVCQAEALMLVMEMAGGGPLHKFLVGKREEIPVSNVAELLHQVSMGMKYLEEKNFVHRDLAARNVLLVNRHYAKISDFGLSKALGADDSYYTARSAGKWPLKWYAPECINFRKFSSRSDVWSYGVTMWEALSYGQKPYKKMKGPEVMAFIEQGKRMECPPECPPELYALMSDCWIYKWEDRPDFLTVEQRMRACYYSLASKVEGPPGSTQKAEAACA

Work on `Nc1nnc2[nH]c3ccccc3nc1-2` yielded a residual activity [1] of 86.5%, a residual activity [2] of 90.1% and a residual activity [3] of 95.3%. For the same compound, the residual activity [4] was 98.3%, the residual activity [5] was 99.2% and the residual activity [6] was 102%. It also gave a residual activity [7] of 81.3%, a residual activity [8] of 98.2% and a residual activity [9] of 96.6%. It also gave a residual activity [10] of 88.7%, a residual activity [11] of 101% and a residual activity [12] of 94.4%. It also gave a residual activity [13] of 98%, a residual activity [14] of 108% and a residual activity [15] of 101%. It also gave a residual activity [16] of 103%, a residual activity [17] of 105% and a residual activity [18] of 92.1%. It also gave a residual activity [19] of 90.8%, a residual activity [20] of 107% and a residual activity [21] of 93.9%. It also gave a residual activity [22] of 99.9%, a residual activity [23] of 113% and a residual activity [24] of 99%. The residual activity [25] was 93.3%, the residual activity [26] was 106% and the residual activity [27] was 105%. The residual activity [28] was 101%, the residual activity [29] was 99.9% and the residual activity [30] was 97%. For the same compound, the residual activity [31] was 82.6%, the residual activity [32] was 93.6% and the residual activity [33] was 98.1%. The residual activity [34] was 101%, the residual activity [35] was 100% and the residual activity [36] was 86.2%. It also gave a residual activity [37] of 94.9%, a residual activity [38] of 97.9% and a residual activity [39] of 96.3%. It also gave a residual activity [40] of 98.4% and a residual activity [41] of 101%.
Work on `Nc1nccc(-c2c(-c3ccc(F)cc3)ncn2C2CCNCC2)n1` yielded a residual activity [1] of 99.8%, a residual activity [2] of 94.8% and a residual activity [3] of 100%. For the same compound, the residual activity [4] was 99.8%, the residual activity [5] was 98.2% and the residual activity [6] was 92.3%. The residual activity [7] was 102%, the residual activity [8] was 96.5% and the residual activity [9] was 104%. It also gave a residual activity [10] of 102%, a residual activity [11] of 96.9% and a residual activity [12] of 98.3%. For the same compound, the residual activity [13] was 98.9%, the residual activity [14] was 110% and the residual activity [15] was 98%. The residual activity [16] was 101%, the residual activity [17] was 101% and the residual activity [18] was 89.3%. The residual activity [19] was 97.8%, the residual activity [20] was 99.8% and the residual activity [21] was 91.2%. The residual activity [22] was 99.8%, the residual activity [23] was 100% and the residual activity [24] was 83.1%. For the same compound, the residual activity [25] was 103%, the residual activity [26] was 94.1% and the residual activity [27] was 100%. It also gave a residual activity [28] of 93%, a residual activity [29] of 121% and a residual activity [30] of 101%. The residual activity [31] was 86.9%, the residual activity [32] was 80.1% and the residual activity [33] was 98.7%. For the same compound, the residual activity [35] was 98.4%, the residual activity [36] was 100% and the residual activity [37] was 99%. The residual activity [38] was 96.1%, the residual activity [39] was 111% and the residual activity [40] was 99.3%. It also gave a residual activity [42] of 86.8% and a residual activity [41] of 103%.
`O=C1Cc2c([nH]c3ccc(Br)cc23)-c2ccccc2N1` gave a residual activity [1] of 96.1%, a residual activity [2] of 104% and a residual activity [3] of 92.6%. It also gave a residual activity [4] of 92.7%, a residual activity [5] of 96.7% and a residual activity [6] of 93.6%. It also gave a residual activity [7] of 98.6%, a residual activity [8] of 111% and a residual activity [9] of 98.9%. For the same compound, the residual activity [10] was 70.8%, the residual activity [11] was 97.7% and the residual activity [12] was 89.7%. For the same compound, the residual activity [13] was 95.1%, the residual activity [14] was 96.4% and the residual activity [15] was 38.8%. It also gave a residual activity [16] of 93.2%, a residual activity [17] of 83.4% and a residual activity [18] of 78.9%. For the same compound, the residual activity [19] was 90.9%, the residual activity [20] was 81.7% and the residual activity [21] was 99.4%. It also gave a residual activity [22] of 98.8%, a residual activity [23] of 100% and a residual activity [24] of 102%. It also gave a residual activity [25] of 84.6%, a residual activity [26] of 83.6% and a residual activity [27] of 104%. For the same compound, the residual activity [28] was 99.1%, the residual activity [29] was 99.8% and the residual activity [30] was 106%. For the same compound, the residual activity [31] was 87.6%, the residual activity [33] was 93.2% and the residual activity [34] was 103%. The residual activity [35] was 90.3%, the residual activity [36] was 37.4% and the residual activity [37] was 96.2%. For the same compound, the residual activity [38] was 29.6%, the residual activity [39] was 97.8% and the residual activity [40] was 110%. The residual activity [42] was 101% and the residual activity [41] was 97%.
